Source: paper PMC5365645, “Preclinical Pharmacokinetics and Pharmacodynamic Target of SCY-078, a First-in-Class Orally Active Antifungal Glucan Synthesis Inhibitor, in Murine Models of Disseminated Candidiasis” (Antimicrobial Agents and Chemotherapy, 2017)

Key:
in vitro = in vitro ADME; details: human, Caco-2
Protocol: Caco-2 cell monolayers were used to assess the in vitro absorptive permeability of SCY-078 as a predictor of absorption across the gut following oral delivery. The mean apparent permeability for 5 μM SCY-078 in the apical-to-basolateral direction was 8.9 ± 0.78 ×10^−6 cm/s (89 ± 7.8 nm/s), indicating good oral absorption since in this assay permeability values of >10^−6 cm/s are considered predictive of good absorption after oral administration ([9]).
Caco2 cells (ATCC CRL-2102) were cultured in Dulbecco modified Eagle medium with the dipeptide form of L-glutamine (GlutaMAX), 10% (vol/vol) fetal bovine serum, and 1% (vol/vol) penicillin-streptomycin at 10,000 U/ml in a 75-ml flask at 37°C in a humidified atmosphere of 5% CO2. […] On the day of the assay, the cell monolayers were rinsed with transport medium (Hanks balanced salt solution with 25 mM glucose and 25 mM HEPES [MediaTech Corning, Tewksbury, MA]), and the absorptive permeation of SCY-078 was evaluated by measuring the flux from the apical to the basolateral compartments. […] The apparent permeability coefficient (Papp; cm/s) was calculated as follows: Papp = 1/A·C0 (dQ/dt), where dQ/dt is the rate of drug appearance in the basolateral compartment (μmol/s), C0 is the initial drug concentration in the donor compartment (μM), and A is the surface area of the monolayer (cm^2). […]

[1] = In vitro metabolic stability in hepatic microsomes; type: in vitro ADME, dog; details: for remaining at 0.5 h, 1 µM: read-out: % remaining after 30 min
Protocol: (§1) The metabolic stability of SCY-078 was assessed after incubation with mouse, rat, dog, and human liver microsomes (Table 2) ([10]). […] The half-lives in rodent, dog, and human liver microsomes were ≥125, ≥29, and ≥42 min, respectively.
(§2) The metabolic stability of SCY-078 was evaluated with male and female mouse, male rat, male and female dog, and mixed-gender human liver microsomes (XenoTech, Lenexa, KS). SCY-078 (1 μM) was incubated with pooled liver microsomes (0.5 mg protein/ml) for 0, 5, 10, 20, and 30 min at 37°C in the presence of NADPH. Aliquots were taken at each sampling time point and extracted with 5 volumes of ice-cold acetonitrile containing the internal standard (d9-SCY-078, 125 ng/ml). Supernatants from the incubation mixtures were analyzed for the parent compound by LC-MS/MS according to the conditions described below. The metabolic competency of microsomal preparations was established using the control compounds 7-ethoxycoumarin, propranolol, and verapamil. The in vitro intrinsic clearance (CLint), the CLint scaled to the in vivo intrinsic clearance (CL′int), and the half-life were determined for SCY-078 incubated with microsomes from each species.

C. albicans MY1055 = test: Single delayed-dose treatment model of disseminated candidiasis; details: single dose 16 h after infection, tissue burden 96 h after treatment, regression analysis
Protocol: Next, a single-dose treatment with SCY-078 was administered. The target endpoint for efficacy in this model was defined as a static effect on the tissue burden measured 96 h after treatment.
For the single delayed-dose treatment model, a single dose of SCY-078 was administered 16 h after infection. The target endpoint for efficacy in this model was a static effect on the tissue burden measured at 96 h posttreatment.

[2] = Biological distribution to kidney tissue after oral delivery; details: for Time to which concentrations would remain measurable in kidney: after dose 13, predicted from elimination rate constant
Protocol: Female CD-1 mice (n = 5/sex/time point/group) weighing approximately 25 g were administered SCY-078 by oral gavage either once daily or as multiple twice-per-day (Q12h) treatments, with individual doses ranging between 3 and 100 mg/kg (6 to 150 mg/kg/day). Mice also received a single 1-mg/ml i.v. dose of SCY-078. Plasma specimens were collected prior to dosing and at 0.25, 0.5, 1, 2, 4, 6, 9, 12, 18, 24, 36, 48, and 60 h after the single i.v. dose and at the same time points from 1 h postdose onward following oral dose 13 on day 7 of treatment. On the first day of oral treatment, plasma specimens were collected immediately before each of the two doses and 1, 2, 4, 6, 9, and 12 h postdosing. […] Kidney tissues were collected at 2, 4, 12, 24, 36, 48, and 60 h after oral dose 13 on treatment day 7, blotted dry, and stored at approximately −80°C until analysis.
On the day of analysis, either treatment-naive (drug-free) kidney tissue or freshly thawed tissue samples from PK studies were weighed and homogenized in 3 volumes of phosphate-buffered saline. The density of kidney tissue used for the determination of volume was assumed to be 1.0 g/ml.
Whole-kidney tissue samples were homogenized in parallel by means of a Precellys 24 bead mill homogenizer (Bertin Technologies, Montigny le Bretonneux, France) using 2-ml Precellys tubes containing 1.4-mm-diameter ceramic beads (CK14) and a single 15-s cycle of 5,500 rpm. Parallel bead homogenization increased throughput and avoided potential cross-contamination of samples since each sample was wholly contained and homogenized within its own sealed vial with no direct contact between the homogenizing instrument or other samples.
Mouse plasma (50 μl) or kidney tissue homogenate (50 μl) was treated with 5 volumes of acetonitrile containing 50 ng of deuterium (d9)-labeled SCY-078 internal standard/ml to precipitate proteins. Treated samples were mixed on a 96-well plate shaker for ∼30 min and then centrifuged at approximately 4,000 × g and 15°C for 15 min. Supernatants were transferred to fresh 96-well plates for analysis by LC-MS/MS.

[3] = Volume of distribution after i.v. administration; details: in vivo, iv, Rhesus monkey, no source reference printed, read-out: Vd ss
Text: TABLE 7 Volume of distribution for SCY-078 and echinocandins after i.v. administration | column: Vd ss (liters/kg)^a / SCY-078

[4] = tested on: C. parapsilosis isolate CP 20519.069; design: method as in PMID 25512406; details: stasis ref 6; cited from earlier work
[5] = In vitro metabolic stability in hepatic microsomes, rodent summary; type: in vitro ADME, mouse and rat
Protocol: as §1, §2

in vivo = test: in vivo; design: species or system beagle dogs; details: beagle, dog; for half-life: t1/2
Protocol: The pharmacokinetics and bioavailability of SCY-078 were evaluated in uninfected mouse, rat, and dog after p.o. and i.v. administration. The in vivo phases of the PK studies were performed at either […] (Waltham, MA) or MPI Research (Mattawan, MI) after an Institutional Animal Care and Use Committee (IACUC) review. […] and MPI Research are Association for Assessment and Accreditation of Laboratory Animal Care International (AAALAC)-approved facilities. […] The peak concentration (Cmax), the time to maximum concentration (Tmax), the half-life, and the AUC were determined from composite mean plasma concentration-time data for rodents and individual plasma concentration-time data for dogs. All doses and plasma concentrations of SCY-078 are presented as free base. Treatment naive male and female beagle dogs (n = 3/sex/group/time point) weighing 8 to 12 kg (males) or 6 to 10 kg (females) were given a single 5-mg/kg dose of SCY-078 as an i.v. injection over 5 min or an oral dose of 20 mg/kg as described above. Blood specimens were collected from the jugular vein at various time intervals to 72 h postdosing and processed as described above.

[6] = both sexes, pooled liver microsomes, dog liver microsomes, summary of male and female
[7] = pooled liver microsomes, female dog liver microsomes
[8] = pooled liver microsomes, male dog liver microsomes
[9] = kidney, 12 mg/kg oral, dose 13 day 7

Structure (SMILES): CC(C)[C@@H](C)[C@@]1(C)CC[C@]2(C)[C@H]3CC[C@@H]4[C@@]5(COC[C@@]4(C)[C@@H](OC[C@](C)(N)C(C)(C)C)[C@H](n4ncnc4-c4ccncc4)C5)C3=CC[C@@]2(C)[C@@H]1C(=O)O [SCY-078, (1S,4aR,6aS,7R,8R,10aR,10bR,12aR,14R,15R)-15-[[(2R)-2-amino-2,3,3-trimethylbutyl]oxy]-8-[(1R)-1,2-dimethylpropyl]-14-[5-(4-pyridinyl)-1H-1,2,4-triazol-1-yl]-1,6,6a,7,8,9,10,10a,10b,11,12,12a-dodecahydro-1,6a,8,10a-tetramethyl-4H-1,4a-propano-2H-phenanthro[1,2-c]pyran-7-carboxylic acid]
- Papp at 2 h, 5 µM (in vitro): ~8.9 ×10⁻⁶ cm/s
- Papp at 2 h, 5 μM (in vitro): 8.9 ± 0.78 ×10⁻⁶ cm/s
- half-life at 1 μM [1, 6]: ≥ 0.483 h
- microsomal CLint at 1 μM [1, 6]: ≤ 48 µL/min/mg
- CLint scaled at 1 μM ([1]; both sexes, pooled liver microsomes, dog liver microsomes, summary of male and female, read-out: CL′int (CLint scaled to in vivo intrinsic clearance)): ≤ 0.069 mL/min/kg
- remaining at 0.5 h, 1 µM ([1]; female dog liver microsomes): 84%
- remaining at 0.5 h, 1 µM ([1]; male dog liver microsomes): 49%
- half-life at 1 μM [1, 7]: 1.53 h
- microsomal CLint at 1 μM [1, 7]: 15 µL/min/mg
- half-life at 1 μM [1, 8]: 0.483 h
- microsomal CLint at 1 μM [1, 8]: 48 µL/min/mg
- Dose achieving stasis endpoint (C. albicans MY1055): 10.28 mg/kg
- Time to which concentrations would remain measurable in kidney ([2]; 6.25 mg/kg): approximately 100 h
- Time to which concentrations would remain measurable in kidney ([2]; 12 mg/kg): ~115 h
- AUC0–24 ([2]; kidney, 6.25 mg/kg oral, dose 13 day 7): 195000 ng·h/mL
- AUC0–24 [2, 9]: 553000 ng·h/mL
- half-life [2, 9]: 8.6 h
- Vd [3]: 4.4 L/kg
- Total drug AUC0–24 target [4]: ~18.8 µM·h
- half-life at 1 μM ([5]; both (mouse), male (rat), pooled liver microsomes, rodent liver microsomes): ≥ 2.08 h
- CLint scaled at 1 μM ([5]; both (mouse), male (rat), pooled liver microsomes, rodent liver microsomes, read-out: CL′int (CLint scaled to in vivo intrinsic clearance)): < 0.04 mL/min/kg
- microsomal CLint at 1 μM ([5]; both (mouse), male (rat), pooled liver microsomes, rodents (mouse and rat) liver microsomes): ≤ 11 µL/min/mg
- remaining at 0.5 h, 1 µM ([5]; both sexes, mouse, rat, liver microsomes, rodent microsomes, read-out: % remaining after 30 min): ~85%
- AUC(0-inf) (in vivo; both sexes, iv, 5 mg/kg): 11900 ± 2200 ng·h/mL
- AUC(0-t) (in vivo; both sexes, iv, 5 mg/kg): 10400 ± 1900 ng·h/mL
- Vd (in vivo; both sexes, iv, 5 mg/kg): 5.1 L/kg
- clearance (in vivo; both sexes, iv, 5 mg/kg): 7.5 mL/min/kg
- half-life (in vivo; both sexes, iv, 5 mg/kg): ~9.3 h
- AUC(0-inf) (in vivo; both sexes, po, 20 mg/kg): 16000 ng·h/mL
- AUC(0-t) (in vivo; both sexes, po, 20 mg/kg): 11500 ng·h/mL
- Cmax (in vivo; both sexes, po, 20 mg/kg): 810 ± 420 ng/mL
- Tmax (in vivo; both sexes, po, 20 mg/kg): 4 ± 2 h
- bioavailability (in vivo; both sexes, po, 20 mg/kg, Bioavailability): ~35%
- half-life (in vivo; both sexes, po, 20 mg/kg): ~15.2 h
- Dose normalized AUC0–∞ to a 1-mg/kg dose (in vivo; both, iv): ~2.4 µg·h/mL
- t1/2 (in vivo; both, iv, 5 mg/kg): 9.3 h
